Test results: patent US20120015957A1, “PIPERAZINYL DERIVATIVES USEFUL AS MODULATORS OF THE NEUROPEPTIDE Y2 RECEPTOR” (priority 2007, published 2012)
Like-named read-outs stand apart in the source and are kept apart here.

Target: T1, NPY Y2 receptor (Homo sapiens, UniProt P49146)
T1 construct: endogenous in cells; host or cells: KAN-Ts cells (membrane preparation)
T1 sequence (P49146 1-381): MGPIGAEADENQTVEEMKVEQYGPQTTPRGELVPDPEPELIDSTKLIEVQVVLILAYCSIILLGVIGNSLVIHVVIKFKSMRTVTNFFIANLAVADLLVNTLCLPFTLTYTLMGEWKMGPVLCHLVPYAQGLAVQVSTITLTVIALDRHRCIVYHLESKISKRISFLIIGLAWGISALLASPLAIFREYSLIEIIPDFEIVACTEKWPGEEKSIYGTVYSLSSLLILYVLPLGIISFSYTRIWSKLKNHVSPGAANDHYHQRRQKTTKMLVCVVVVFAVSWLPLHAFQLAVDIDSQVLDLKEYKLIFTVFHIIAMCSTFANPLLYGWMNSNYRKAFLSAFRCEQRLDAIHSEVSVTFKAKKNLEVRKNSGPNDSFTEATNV
Test: Neuropeptide Y2 radioligand binding assay ([125I]PYY, KAN-Ts cell membranes)
Experimental: KAN-Ts endogenously expressing Y2 receptors were used for the radioligand binding assay. Cells were grown to confluence on 150 cm^2 tissue culture plates, washed with phosphate-buffered saline (PBS), and scraped into 50 mL tubes. After centrifugation, the supernatant was aspirated, and the pellets frozen and stored at −80° C. Thawed pellets were homogenized with a polytron tissue grinder for 15 sec in 20 mM Tris-HCl, 5 mM EDTA. The homogenate was centrifuged at 800×g for 5 min and the collected supernatant was recentrifuged at 25000×g for 25 min. The resulting pellet was resuspended in binding buffer (20 mM HEPES, 120 mM NaCl, 0.22 mM KH2PO4, 1.3 mM CaCl2, 0.8 mM MgSO4). Membranes were incubated with [^125I]PYY (80 pM) in the presence or absence of test compound for 1 h at rt. The reaction was stopped by filtration through GF/C filter plates pre-soaked in 0.3% polyethylenimine and subsequently washed with Tris 50 mM, 5 mM EDTA buffer. Plates were dried for 1 h in a 55° C. oven, scintillation fluid was added and the radioactivity was counted in a Packard TopCount. Specific binding to the NPY receptor subtypes was determined by radioactivity that was bound in the presence of […] NPY. Each binding experiment was repeated three to eight times, each in duplicate. IC50 values (i.e. concentration of unlabelled peptide or antagonist required to compete for 50% of specific binding to the radioligand) were determined using the GraphPad Prism software (GraphPad Software Inc., San Diego Calif.) with a fit to a sigmoidal dose response curve. Apparent K values were as K=IC50/(1+C/KD), where C is concentration of the radioligand.

[1] = membranes of KAN-Ts cells endogenously expressing Y2 receptors, [125I]PYY 80 pM, 1 h at rt, read-out: IC50 (μM), NPY Y2 binding

Compound	IC50 [1] [µM]	IC50 [µM]
CCN(CC)C(=O)C(c1ccccc1)N1CCN(c2ccc(-c3nc(C)n[nH]3)cc2F)CC1 (stereo not shown) [Compound 208, N,N-Diethyl-2-{4-[2-fluoro-4-(5-methyl-2H-[1,2,4]triazol-3-yl)-phenyl]-piperazin-1-yl}-2-phenyl-acetamide]	2.9	–
CCN(CC)C(=O)C(c1cc(F)ccc1Br)N1CCN(c2ccc(-c3nc(C)no3)cc2F)CC1 (stereo not shown) [Compound 209, 2-(2-Bromo-5-fluoro-phenyl)-N,N-diethyl-2-{4-[2-fluoro-4-(3-methyl-[1,2,4]oxadiazol-5-yl)-phenyl]-piperazin-1-yl}-acetamide]	0.99	–
CCN(CC)C(=O)C(c1ccc(F)cc1)N1CCN(c2ccc(-c3nc(C)no3)cc2F)CC1 (stereo not shown) [Compound 210, N,N-Diethyl-2-{4-[2-fluoro-4-(3-methyl-[1,2,4]oxadiazol-5-yl)-phenyl]-piperazin-1-yl}-2-(4-fluoro-phenyl)-acetamide]	0.29	–
CCN(CC)C(=O)C(c1cccc(F)c1)N1CCN(c2ccc(-c3nc(C)no3)cc2F)CC1 (stereo not shown) [Compound 211, N,N-Diethyl-2-{4-[2-fluoro-4-(3-methyl-[1,2,4]oxadiazol-5-yl)-phenyl]-piperazin-1-yl}-2-(3-fluoro-phenyl)-acetamide]	0.083	–
CCN(CC)C(=O)C(c1ccccc1)N1CCN(c2ccc(-c3nnc(C(C)C)[nH]3)cc2F)CC1 (stereo not shown) [Compound 212, N,N-Diethyl-2-{4-[2-fluoro-4-(5-isopropyl-2H-[1,2,4]triazol-3-yl)-phenyl]-piperazin-1-yl}-2-phenyl-acetamide]	0.83	–
COC(=O)C(c1ccccc1)N1CCN(c2ccc(-c3nc(C(C)C)no3)cc2F)CC1 (stereo not shown) [Compound 213, {4-[2-Fluoro-4-(3-isopropyl-[1,2,4]oxadiazol-5-yl)-phenyl]-piperazin-1-yl}-phenyl-acetic acid methyl ester]	0.24	–
CCN(CC)C(=O)C(c1ccccc1)N1CCN(c2ccc(-c3ccccc3OC)cc2F)CC1 (stereo not shown) [Compound 214, N,N-Diethyl-2-[4-(3-fluoro-2′-methoxy-biphenyl-4-yl)-piperazin-1-yl]-2-phenyl-acetamide]	0.078	–
CCN(CC)C(=O)C(c1ccccc1)N1CCN(c2ccc(-c3nc(C)n(C)n3)cc2F)CC1 (stereo not shown) [Compound 215, 2-{4-[4-(1,5-Dimethyl-1H-[1,2,4]triazol-3-yl)-2-fluoro-phenyl]-piperazin-1-yl}-N,N-diethyl-2-phenyl-acetamide]	1.1	–
CCN(CC)C(=O)C(c1ccccc1)N1CCN(c2ccc(-c3nc(C(C)C)n(C)n3)cc2F)CC1 (stereo not shown) [Compound 216, N,N-Diethyl-2-{4-[2-fluoro-4-(5-isopropyl-1-methyl-1H-[1,2,4]triazol-3-yl)-phenyl]-piperazin-1-yl}-2-phenyl-acetamide]	1.95	–
Cc1noc(-c2ccc(N3CCN(C(C(=O)OC(C)(C)C)c4ccccc4)CC3)c(F)c2)n1 (stereo not shown) [Compound 219, {4-[2-Fluoro-4-(3-methyl-[1,2,4]oxadiazol-5-yl)-phenyl]-piperazin-1-yl}-phenyl-acetic acid tert-butyl ester]	0.66	–
CCN(CC)C(=O)C(c1ccccc1)N1CCN(c2ccc(-c3nc(C(C)C)nn3C)cc2F)CC1 (stereo not shown) [Compound 220, N,N-Diethyl-2-{4-[2-fluoro-4-(5-isopropyl-2-methyl-2H-[1,2,4]triazol-3-yl)-phenyl]-piperazin-1-yl}-2-phenyl-acetamide]	1	–
CCN(CC)C(=O)C(c1ccccc1)N1CCN(c2ccc(-c3nc(C(C)C)no3)cc2C(N)=O)CC1 (stereo not shown) [Compound 221, 2-[4-(Diethylcarbamoyl-phenyl-methyl)-piperazin-1-yl]-5-(3-isopropyl-[1,2,4]oxadiazol-5-yl)-benzamide]	2.1	–
CCOC(=O)C(C)(c1ccccc1)N1CCN(c2ccc(-c3nc(C)no3)cc2F)CC1 (stereo not shown) [Compound 226, 2-{4-[2-Fluoro-4-(3-methyl-[1,2,4]oxadiazol-5-yl)-phenyl]-piperazin-1-yl}-2-phenyl-propionic acid ethyl ester]	1	–
CCN(CC)C(=O)C(c1ccc(OC)cc1)N1CCN(c2ccc(-c3nc(C)no3)cc2C#N)CC1 (stereo not shown) [Compound 250, 2-{4-[2-Cyano-4-(3-methyl-[1,2,4]oxadiazol-5-yl)-phenyl]-piperazin-1-yl}-N,N-diethyl-2-(4-methoxy-phenyl)-acetamide]	0.035	–
CCN(CC)C(=O)C(c1ccccc1OC)N1CCN(c2ccc(-c3nc(C)no3)cc2C#N)CC1 (stereo not shown) [Compound 251, 2-{4-[2-Cyano-4-(3-methyl-[1,2,4]oxadiazol-5-yl)-phenyl]-piperazin-1-yl}-N,N-diethyl-2-(2-methoxy-phenyl)-acetamide]	0.49	–
CCN(CC)C(=O)C(c1cccs1)N1CCN(c2ccc(-c3nc(C)no3)cc2C#N)CC1 (stereo not shown) [Compound 252, 2-{4-[2-Cyano-4-(3-methyl-[1,2,4]oxadiazol-5-yl)-phenyl]-piperazin-1-yl}-N,N-diethyl-2-thiophen-2-yl-acetamide]	0.096	–
CCN(CC)C(=O)C(c1ccccc1)N1CCN(c2ccc(-c3ccccc3C#N)cc2F)CC1 (stereo not shown) [Compound 253, 2-[4-(2′-Cyano-3-fluoro-biphenyl-4-yl)-piperazin-1-yl]-N,N-diethyl-2-phenyl-acetamide]	8.3	–
CCN(CC)C(=O)C(c1ccccc1)N1CCN(c2ccc(-c3ccccc3C)cc2F)CC1 (stereo not shown) [Compound 254, N,N-Diethyl-2-[4-(3-fluoro-2′-methyl-biphenyl-4-yl)-piperazin-1-yl]-2-phenyl-acetamide]	1	–
CCN(CC)C(=O)C(c1ccccc1)N1CCN(c2ccc(-c3ccccc3OC)cc2C#N)CC1 (stereo not shown) [Compound 255, 2-[4-(3-Cyano-2′-methoxy-biphenyl-4-yl)-piperazin-1-yl]-N,N-diethyl-2-phenyl-acetamide]	0.03	–
CCN(CC)C(=O)C(c1ccccc1)N1CCN(c2ccc(-c3nc(C(C)C)no3)cc2C=O)CC1 (stereo not shown) [Compound 256, N,N-Diethyl-2-{4-[2-formyl-4-(3-isopropyl-[1,2,4]oxadiazol-5-yl)-phenyl]-piperazin-1-yl}-2-phenyl-acetamide]	0.17	–
CCN(CC)C(=O)C(c1ccccc1)N1CCN(c2ccc(-c3nc(C(C)C)no3)cc2CO)CC1 (stereo not shown) [Compound 257, N,N-Diethyl-2-{4-[2-hydroxymethyl-4-(3-isopropyl-[1,2,4]oxadiazol-5-yl)-phenyl]-piperazin-1-yl}-2-phenyl-acetamide]	0.34	–
CCN(CC)C(=O)C(c1ccccc1)N1CCN(c2ccc(-c3nc(C(C)C)no3)cc2CNC)CC1 (stereo not shown) [Compound 258, N,N-Diethyl-2-{4-[4-(3-isopropyl-[1,2,4]oxadiazol-5-yl)-2-methylaminomethyl-phenyl]-piperazin-1-yl}-2-phenyl-acetamide]	1.8	–
CCN(CC)C(=O)C(c1ccccc1)N1CCN(c2ccc(-c3nc(C(C)C)no3)cc2CN(C)C)CC1 (stereo not shown) [Compound 259, 2-{4-[2-Dimethylaminomethyl-4-(3-isopropyl-[1,2,4]oxadiazol-5-yl)-phenyl]-piperazin-1-yl}-N,N-diethyl-2-phenyl-acetamide]	2.4	–
CCN(CC)C(=O)C(c1ccccc1)N1CCN(c2ccc(-c3nc(C(C)C)no3)cc2COC)CC1 (stereo not shown) [Compound 260, N,N-Diethyl-2-{4-[4-(3-isopropyl-[1,2,4]oxadiazol-5-yl)-2-methoxymethyl-phenyl]-piperazin-1-yl}-2-phenyl-acetamide]	0.98	–
CCNC(=O)C(c1ccccc1)N1CCN(c2ccc(-c3nc(C)no3)cc2C#N)CC1 (stereo not shown) [Compound 261, 2-{4-[2-Cyano-4-(3-methyl-[1,2,4]oxadiazol-5-yl)-phenyl]-piperazin-1-yl}-N-ethyl-2-phenyl-acetamide]	0.41	–
CCN(CC)C(=O)C(c1ccc(F)cc1)N1CCN(c2ccc(-c3nc(C)no3)cc2C#N)CC1 (stereo not shown) [Compound 262, 2-{4-[2-Cyano-4-(3-methyl-[1,2,4]oxadiazol-5-yl)-phenyl]-piperazin-1-yl}-N,N-diethyl-2-(4-fluoro-phenyl)-acetamide]	0.098	–
CCNC(=O)C(c1ccccc1)N1CCN(c2ccc(-c3nc(C(C)C)no3)cc2C#N)CC1 (stereo not shown) [Compound 270]	–	0.062
CCN(CC)C(=O)C(c1ccccc1)N1CCN(c2ccc(-c3nc(C)ns3)cc2F)CC1 (stereo not shown) [Compound 271, N,N-Diethyl-2-{4-[2-fluoro-4-(3-methyl-[1,2,4]thiadiazol-5-yl)-phenyl]-piperazin-1-yl}-2-phenyl-acetamide]	0.11	–
